Laboratory results: US9738634B2, “Heterocyclic amide compound and herbicide” (SYNGENTA PARTICIPATIONS AG, priority 2013, dated 2017)

How the values were obtained:
Type in all cases: in vivo
crabgrass [1] = assay: Test Example 3: weedkilling efficacy through soil treatment; D: crabgrass; settings: treatment dosage 315 g/ha
Method in brief: (§1)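 Crop and weed responses were judged three weeks after a uniform surface spray of the water-diluted emulsion at the given g/ha rate. Seeds sat beneath about 1.5 cm of sterilized diluvial soil, and boxes stood in a greenhouse at 25 to 30° C.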

catchweed = assay: Test Example 4: weedkilling efficacy by foliar treatment; O: catchweed; settings: treatment dosage 315 g/ha
Method in brief: (§2)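 Seeds are spot-sown into sterilized diluvial soil and covered with about 1.5 cm of soil. After 14 days' greenhouse growth at 25 to 30° C, plants are sprayed on stems and leaves with diluted emulsion at the stated g/ha rate, then scored at 3 weeks.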

beet [2] = assay: Test Example 4: foliar treatment, effect on crop; f: beet; settings: treatment dosage 315 g/ha
Method in brief: as §2

Italian ryegrass [3] = assay: Test Example 3: weedkilling efficacy through soil treatment; I: Italian ryegrass; settings: treatment dosage 315 g/ha
Method in brief: as §1

barnyard grass [4] = assay: Test Example 1: weedkilling efficacy, preemergent weed treatment in the submerged state; A: barnyard grass; settings: treatment dosage 252 g/ha
Method in brief: (§3)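 Visual scores against set criteria were taken 3 weeks after treatment. Compounds, as diluted emulsions at specified g/ha, went onto the water surface of 4 cm-flooded alluvial soil pots on the day weeds were sown and 2.5-leaf rice was transplanted; greenhouse held 25–30 °C.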

directly sown rice [5] = assay: Test Example 3: soil treatment, effect on crop; b: directly sown rice; settings: treatment dosage 315 g/ha
Method in brief: as §1

black-grass [6] = assay: Test Example 3: weedkilling efficacy through soil treatment; H: black-grass; settings: treatment dosage 315 g/ha
Method in brief: as §1

Indian mallow [7] = assay: Test Example 4: weedkilling efficacy by foliar treatment; K: Indian mallow; settings: treatment dosage 315 g/ha
Method in brief: as §2

birds-eye speedwell [8] = assay: Test Example 3: weedkilling efficacy through soil treatment; p: birds-eye speedwell; settings: treatment dosage 315 g/ha
Method in brief: as §1

crabgrass [9] = assay: Test Example 4: weedkilling efficacy by foliar treatment; D: crabgrass; settings: treatment dosage 315 g/ha
Method in brief: as §2

oval-leafed pondweed [10] = assay: Test Example 2: weedkilling efficacy, growth period weed treatment in the submerged state; C: oval-leafed pondweed; settings: treatment dosage 252 g/ha
Method in brief: (§4)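 Barnyard grass, bulrush and oval-leafed pondweed sown in alluvial soil under 4 cm flooding, greenhouse 25 to 30° C. At 1-2 leaf stage, water-diluted emulsion applied to the water surface at stated g/ha dosages; effects scored 3 weeks later.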

bulrush [11] = assay: Test Example 2: weedkilling efficacy, growth period weed treatment in the submerged state; B: bulrush; settings: treatment dosage 252 g/ha
Method in brief: as §4

bulrush [12] = assay: Test Example 1: weedkilling efficacy, preemergent weed treatment in the submerged state; B: bulrush; settings: treatment dosage 252 g/ha
Method in brief: as §3

directly sown rice [13] = assay: Test Example 4: foliar treatment, effect on crop; b: directly sown rice; settings: treatment dosage 315 g/ha
Method in brief: as §2

green foxtail [14] = assay: Test Example 4: weedkilling efficacy by foliar treatment; E: green foxtail; settings: treatment dosage 315 g/ha
Method in brief: as §2

corn [15] = assay: Test Example 4: foliar treatment, effect on crop; c: corn; settings: treatment dosage 315 g/ha
Method in brief: as §2

soybean [16] = assay: Test Example 4: foliar treatment, effect on crop; d: soybean; settings: treatment dosage 315 g/ha
Method in brief: as §2

Italian ryegrass [17] = assay: Test Example 4: weedkilling efficacy by foliar treatment; I: Italian ryegrass; settings: treatment dosage 315 g/ha
Method in brief: as §2

beet [18] = assay: Test Example 3: soil treatment, effect on crop; f: beet; settings: treatment dosage 315 g/ha
Method in brief: as §1

black-grass [19] = assay: Test Example 4: weedkilling efficacy by foliar treatment; H: black-grass; settings: treatment dosage 315 g/ha
Method in brief: as §2

transplanted rice = assay: Test Example 1: preemergent weed treatment in the submerged state, effect on crop; a: transplanted rice; settings: treatment dosage 252 g/ha
Method in brief: as §3

birds-eye speedwell [20] = assay: Test Example 4: weedkilling efficacy by foliar treatment; p: birds-eye speedwell; settings: treatment dosage 315 g/ha
Method in brief: as §2

fig-leafed goosefoot [21] = assay: Test Example 3: weedkilling efficacy through soil treatment; M: fig-leafed goosefoot; settings: treatment dosage 315 g/ha
Method in brief: as §1

corn [22] = assay: Test Example 3: soil treatment, effect on crop; c: corn; settings: treatment dosage 315 g/ha
Method in brief: as §1

oval-leafed pondweed [23] = assay: Test Example 1: weedkilling efficacy, preemergent weed treatment in the submerged state; C: oval-leafed pondweed; settings: treatment dosage 252 g/ha
Method in brief: as §3

redroot pigweed [24] = assay: Test Example 3: weedkilling efficacy through soil treatment; L: redroot pigweed; settings: treatment dosage 315 g/ha
Method in brief: as §1

wild oat = assay: Test Example 3: weedkilling efficacy through soil treatment; G: wild oat; settings: treatment dosage 315 g/ha
Method in brief: as §1

chickweed [25] = assay: Test Example 4: weedkilling efficacy by foliar treatment; N: chickweed; settings: treatment dosage 315 g/ha
Method in brief: as §2

wheat [26] = assay: Test Example 3: soil treatment, effect on crop; e: wheat; settings: treatment dosage 315 g/ha
Method in brief: as §1

barnyard grass [27] = assay: Test Example 2: weedkilling efficacy, growth period weed treatment in the submerged state; A: barnyard grass; settings: treatment dosage 252 g/ha
Method in brief: as §4

chickweed [28] = assay: Test Example 3: weedkilling efficacy through soil treatment; N: chickweed; settings: treatment dosage 315 g/ha
Method in brief: as §1

wheat [29] = assay: Test Example 4: foliar treatment, effect on crop; e: wheat; settings: treatment dosage 315 g/ha
Method in brief: as §2

fig-leafed goosefoot [30] = assay: Test Example 4: weedkilling efficacy by foliar treatment; M: fig-leafed goosefoot; settings: treatment dosage 315 g/ha
Method in brief: as §2

redroot pigweed [31] = assay: Test Example 4: weedkilling efficacy by foliar treatment; L: redroot pigweed; settings: treatment dosage 315 g/ha
Method in brief: as §2

green foxtail [32] = assay: Test Example 3: weedkilling efficacy through soil treatment; E: green foxtail; settings: treatment dosage 315 g/ha
Method in brief: as §1

Indian mallow [33] = assay: Test Example 3: weedkilling efficacy through soil treatment; K: Indian mallow; settings: treatment dosage 315 g/ha
Method in brief: as §1

soybean [34] = assay: Test Example 3: soil treatment, effect on crop; d: soybean; settings: treatment dosage 315 g/ha
Method in brief: as §1

Q: Which “D (crabgrass) weedkilling efficacy grade” value (crabgrass [1]) does the source give for `CC1=C(c2ccsc2)C(=O)N(C(C)(C)C(=O)Nc2cccc(Br)n2)CO1` [B-2-06] here?
A: The value was 5 (weed kill ratio 90% or more, (practically complete withering)).

Q: And the “O (catchweed) weedkilling efficacy grade” value (catchweed)?
A: The value was 4 (weed kill ratio 70% or more, less than 90%).

Q: And the “f (beet) effect on crop grade” value (beet [2])?
A: Its value is 4 (weed kill ratio 70% or more, less than 90%).

Q: What about the “I (Italian ryegrass) weedkilling efficacy grade” value (Italian ryegrass [3]) of the same molecule?
A: Its value is 5 (weed kill ratio 90% or more, (practically complete withering)).

Q: And the “A (barnyard grass) weedkilling efficacy grade” value (barnyard grass [4])?
A: Its value is 5 (weed kill ratio 90% or more, (practically complete withering)).

Q: What about the “b (directly sown rice) effect on crop grade” value (directly sown rice [5]) of the same molecule?
A: Its value is 5 (weed kill ratio 90% or more, (practically complete withering)).

Q: And the “H (black-grass) weedkilling efficacy grade” value (black-grass [6])?
A: The value was 5 (weed kill ratio 90% or more, (practically complete withering)).

Q: And the “K (Indian mallow) weedkilling efficacy grade” value (Indian mallow [7])?
A: The value was 3 (weed kill ratio 40% or more, less than 70%).

Q: And the “P (birds-eye speedwell) weedkilling efficacy grade” value (birds-eye speedwell [8])?
A: Its value is 5 (weed kill ratio 90% or more, (practically complete withering)).

Q: And the “D (crabgrass) weedkilling efficacy grade” value (crabgrass [9])?
A: The value was 5 (weed kill ratio 90% or more, (practically complete withering)).

Q: What about the “C (oval-leafed pondweed) weedkilling efficacy grade” value (oval-leafed pondweed [10]) of the same molecule?
A: The value was 5 (weed kill ratio 90% or more, (practically complete withering)).

Q: And the “B (bulrush) weedkilling efficacy grade” value (bulrush [11])?
A: The value was 5 (weed kill ratio 90% or more, (practically complete withering)).

Q: And the “B (bulrush) weedkilling efficacy grade” value (bulrush [12])?
A: The value was 5 (weed kill ratio 90% or more, (practically complete withering)).

Q: What about the “b (directly sown rice) effect on crop grade” value (directly sown rice [13]) of the same molecule?
A: Its value is 5 (weed kill ratio 90% or more, (practically complete withering)).

Q: And the “E (green foxtail) weedkilling efficacy grade” value (green foxtail [14])?
A: Its value is 5 (weed kill ratio 90% or more, (practically complete withering)).

Q: What about the “c (corn) effect on crop grade” value (corn [15]) of the same molecule?
A: The value was 1 (weed kill ratio 5% or more, less than 20%).

Q: And the “d (soybean) effect on crop grade” value (soybean [16])?
A: Its value is 4 (weed kill ratio 70% or more, less than 90%).

Q: And the “I (Italian ryegrass) weedkilling efficacy grade” value (Italian ryegrass [17])?
A: The value was 5 (weed kill ratio 90% or more, (practically complete withering)).

Q: What about the “f (beet) effect on crop grade” value (beet [18]) of the same molecule?
A: The value was 5 (weed kill ratio 90% or more, (practically complete withering)).

Q: And the “H (black-grass) weedkilling efficacy grade” value (black-grass [19])?
A: Its value is 5 (weed kill ratio 90% or more, (practically complete withering)).

Q: And the “a (transplanted rice) effect on crop grade” value (transplanted rice)?
A: The value was 4 (weed kill ratio 70% or more, less than 90%).

Q: And the “P (birds-eye speedwell) weedkilling efficacy grade” value (birds-eye speedwell [20])?
A: The value was 5 (weed kill ratio 90% or more, (practically complete withering)).

Q: What about the “M (fig-leafed goosefoot) weedkilling efficacy grade” value (fig-leafed goosefoot [21]) of the same molecule?
A: Its value is 5 (weed kill ratio 90% or more, (practically complete withering)).

Q: What about the “c (corn) effect on crop grade” value (corn [22]) of the same molecule?
A: The value was 0 (weed kill ratio 5% or less (practically no effect)).

Q: What about the “C (oval-leafed pondweed) weedkilling efficacy grade” value (oval-leafed pondweed [23]) of the same molecule?
A: The value was 5 (weed kill ratio 90% or more, (practically complete withering)).

Q: What about the “L (redroot pigweed) weedkilling efficacy grade” value (redroot pigweed [24]) of the same molecule?
A: The value was 5 (weed kill ratio 90% or more, (practically complete withering)).

Q: What about the “G (wild oat) weedkilling efficacy grade” value (wild oat) of the same molecule?
A: The value was 5 (weed kill ratio 90% or more, (practically complete withering)).

Q: What about the “N (chickweed) weedkilling efficacy grade” value (chickweed [25]) of the same molecule?
A: The value was 4 (weed kill ratio 70% or more, less than 90%).

Q: What about the “e (wheat) effect on crop grade” value (wheat [26]) of the same molecule?
A: The value was 5 (weed kill ratio 90% or more, (practically complete withering)).

Q: And the “A (barnyard grass) weedkilling efficacy grade” value (barnyard grass [27])?
A: Its value is 5 (weed kill ratio 90% or more, (practically complete withering)).

Q: And the “N (chickweed) weedkilling efficacy grade” value (chickweed [28])?
A: Its value is 4 (weed kill ratio 70% or more, less than 90%).

Q: And the “e (wheat) effect on crop grade” value (wheat [29])?
A: Its value is 4 (weed kill ratio 70% or more, less than 90%).

Q: And the “M (fig-leafed goosefoot) weedkilling efficacy grade” value (fig-leafed goosefoot [30])?
A: The value was 4 (weed kill ratio 70% or more, less than 90%).

Q: And the “L (redroot pigweed) weedkilling efficacy grade” value (redroot pigweed [31])?
A: The value was 5 (weed kill ratio 90% or more, (practically complete withering)).

Q: And the “E (green foxtail) weedkilling efficacy grade” value (green foxtail [32])?
A: Its value is 5 (weed kill ratio 90% or more, (practically complete withering)).

Q: What about the “K (Indian mallow) weedkilling efficacy grade” value (Indian mallow [33]) of the same molecule?
A: The value was 4 (weed kill ratio 70% or more, less than 90%).

Q: What about the “d (soybean) effect on crop grade” value (soybean [34]) of the same molecule?
A: The value was 2 (weed kill ratio 20% or more, less than 40%).
